From ChEMBL document CHEMBL1687931, “Involvement of heme oxygenase-1 induction via Nrf2/ARE activation in protection against H2O2-induced PC12 cell death by a metabolite of sesamin contained in sesame seeds” (2011)
Calls of active or inactive are those of the source. The rule behind the calls is not given here.

Tests used:
[1] = target: T1, Nuclear factor erythroid 2-related factor 2 (Rattus norvegicus) (UniProt O54968); assay: Induction of NRF2/ARE enhancer activity rat PC12 cells transfected with ARE-firefly luciferase reporter gene at 10 uM after 24 hrs by luciferase assay; assay type: functional, cell-based; conditions: PC-12
T1 sequence (whole entry): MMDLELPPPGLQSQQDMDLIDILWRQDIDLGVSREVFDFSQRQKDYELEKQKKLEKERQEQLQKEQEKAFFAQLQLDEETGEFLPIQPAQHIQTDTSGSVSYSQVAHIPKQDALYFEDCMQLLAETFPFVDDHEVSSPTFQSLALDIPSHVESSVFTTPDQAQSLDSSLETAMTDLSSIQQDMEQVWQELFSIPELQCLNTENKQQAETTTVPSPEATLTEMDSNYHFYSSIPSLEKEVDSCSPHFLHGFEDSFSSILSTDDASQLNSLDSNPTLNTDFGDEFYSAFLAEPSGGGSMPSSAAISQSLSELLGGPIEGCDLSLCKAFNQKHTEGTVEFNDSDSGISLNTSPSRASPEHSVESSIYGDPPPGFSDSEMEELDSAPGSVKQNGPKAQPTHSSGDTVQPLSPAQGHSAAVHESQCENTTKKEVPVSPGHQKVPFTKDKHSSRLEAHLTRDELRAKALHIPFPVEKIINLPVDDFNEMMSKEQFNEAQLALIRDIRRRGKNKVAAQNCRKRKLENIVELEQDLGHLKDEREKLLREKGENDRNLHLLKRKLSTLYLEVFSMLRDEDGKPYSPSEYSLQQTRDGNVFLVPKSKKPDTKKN

[2] = target: T1, Nuclear factor erythroid 2-related factor 2 (Rattus norvegicus); assay: Induction of nuclear translocation of Nrf2 in rat PC12 cells at 10 uM after 6 hrs by Western blot analysis; assay type: functional, cell-based; conditions: PC-12
PC-12 [3] = assay: Neuroprotective activity against H2O2-induced oxidative stress in rat PC12 cells assessed as cell viability pretreated with 10 uM for 6 hrs measured before inducer addition; assay type: functional; conditions: read-out: Activity
PC-12 [4] = assay: Phosphorylation of JNK in rat PC12 cells at 10 uM up to 120 mins by Western blot analysis; assay type: cell-based
[5] = target: T1, Nuclear factor erythroid 2-related factor 2 (Rattus norvegicus); assay: Activation of Nrf2/ARE in rat PC12 cells assessed as upregulation of HO-1 protein expression at 10 uM after 6 hrs by Western blot analysis; assay type: functional, cell-based; conditions: PC-12
PC-12 [6] = assay: Neuroprotective activity against H2O2-induced oxidative stress in rat PC12 cells expressing dominant-negative Nrf2 mutant assessed as cell viability pretreated with 10 uM for 6 hrs; assay type: functional, cell-based
[7] = target: T1, Nuclear factor erythroid 2-related factor 2 (Rattus norvegicus); assay: Activation of Nrf2/ARE in rat PC12 cells assessed as upregulation of HO-1 mRNA expression at 10 uM after 6 hrs by RT-PCR; assay type: functional, cell-based; conditions: PC-12
[8] = target: T1, Nuclear factor erythroid 2-related factor 2 (Rattus norvegicus); assay: Activation of Nrf2/ARE in rat PC12 cells assessed as induction of NQO-1 protein expression by Western blot analysis; assay type: functional, cell-based; conditions: PC-12
PC-12 [9] = assay: Increase in intracellular ROS production in rat PC12 cells assessed as NRF2-mediated HO-1 induction at 10 uM after 24 hrs pretreated with N-acetylcysteine for 1 hr before compound addition by Western blot analysis; assay type: functional, cell-based
[10] = target: Mitogen-activated protein kinase 3 (Rattus norvegicus) (UniProt P21708); assay: Phosphorylation of ERK1 in rat PC12 cells at 10 uM after 30 mins by Western blot analysis; assay type: cell-based; conditions: PC-12
Chain of Mitogen-activated protein kinase 3 (Rattus norvegicus) (P21708 whole entry): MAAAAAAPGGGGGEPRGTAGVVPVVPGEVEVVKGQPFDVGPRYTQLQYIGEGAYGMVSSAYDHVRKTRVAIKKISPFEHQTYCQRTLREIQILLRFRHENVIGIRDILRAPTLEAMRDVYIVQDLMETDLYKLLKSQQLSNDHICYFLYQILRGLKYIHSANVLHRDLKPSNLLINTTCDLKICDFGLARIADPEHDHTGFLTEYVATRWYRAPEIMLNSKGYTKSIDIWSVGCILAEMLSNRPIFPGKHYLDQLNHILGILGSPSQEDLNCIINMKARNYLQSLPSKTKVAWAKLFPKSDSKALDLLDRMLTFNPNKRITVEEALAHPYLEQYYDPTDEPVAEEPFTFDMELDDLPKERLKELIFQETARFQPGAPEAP

[11] = target: T1, Nuclear factor erythroid 2-related factor 2 (Rattus norvegicus); assay: Activation of Nrf2/ARE in rat PC12 cells assessed as effect on HO-1 protein level at 10 uM after 24 hrs by Western blot analysis; assay type: functional, cell-based; conditions: PC-12
[12] = target: T1, Nuclear factor erythroid 2-related factor 2 (Rattus norvegicus); assay: Activation of Nrf2/ARE in rat PC12 cells assessed as inhibition of H2O2-induced oxidative stress by measuring cell viability pretreated with 10 uM for 6 hrs in presence of HO-1 inhibitor Zn-protoporphyrin; assay type: functional, cell-based; conditions: PC-12
[13] = target: T1, Nuclear factor erythroid 2-related factor 2 (Rattus norvegicus); assay: Effect on Nrf2 protein in rat PC12 cell cytoplasmic fraction at 10 uM up to 6 hrs by Western blot analysis; assay type: functional, cell-based; conditions: PC-12
PC-12 [14] = assay: Increase in intracellular ROS production in rat PC12 cells at 10 uM after 6 hrs by CM-H2-DCFDA staining-based fluorescence assay; assay type: functional, cell-based
[15] = target: T1, Nuclear factor erythroid 2-related factor 2 (Rattus norvegicus); assay: Activation of Nrf2/ARE in rat PC12 cells assessed as induction of GCSc protein expression at 10 uM by Western blot analysis; assay type: functional, cell-based; conditions: PC-12
[16] = target: T1, Nuclear factor erythroid 2-related factor 2 (Rattus norvegicus); assay: Activation of Nrf2/ARE in rat PC12 cells assessed as upregulation of HO-1 protein expression at 10 uM after 12 hrs by Western blot analysis; assay type: functional, cell-based; conditions: PC-12
PC-12 [17] = assay: Neuroprotective activity against H2O2-induced oxidative stress in rat PC12 cells assessed as cell viability pretreated with 5 uM for 6 hrs measured before inducer addition; assay type: functional; conditions: read-out: Activity
[18] = target: Mitogen-activated protein kinase 1 (Rattus norvegicus) (UniProt P63086); assay: Phosphorylation of ERK2 in rat PC12 cells at 10 uM after 30 mins by Western blot analysis; assay type: cell-based; conditions: PC-12
Chain of Mitogen-activated protein kinase 1 (Rattus norvegicus) (P63086 whole entry): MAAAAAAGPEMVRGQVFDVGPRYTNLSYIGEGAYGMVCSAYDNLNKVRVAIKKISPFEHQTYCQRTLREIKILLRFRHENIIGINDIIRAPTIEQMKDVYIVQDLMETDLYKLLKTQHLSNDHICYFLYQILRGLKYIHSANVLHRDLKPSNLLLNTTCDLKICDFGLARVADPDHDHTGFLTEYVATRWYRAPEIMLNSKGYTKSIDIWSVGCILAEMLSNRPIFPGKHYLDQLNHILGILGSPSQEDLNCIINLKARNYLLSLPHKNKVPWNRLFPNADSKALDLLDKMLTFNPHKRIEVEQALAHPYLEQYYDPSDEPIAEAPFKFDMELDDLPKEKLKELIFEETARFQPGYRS

PC-12 [19] = assay: Increase in intracellular ROS production in rat PC12 cells assessed as induction of p38 phosphorylation at 10 uM after 1 hr pretreated with N-acetylcysteine for 1 hr before compound addition by Western blot analysis; assay type: functional, cell-based
PC-12 [20] = assay: Phosphorylation of p38 kinase in rat PC12 cells at 10 uM up to 120 mins by Western blot analysis; assay type: cell-based
[21] = target: T1, Nuclear factor erythroid 2-related factor 2 (Rattus norvegicus); assay: Activation of Nrf2/ARE in rat PC12 cells assessed as upregulation of HO-1 protein expression at 1 to 10 uM after 12 hrs by Western blot analysis; assay type: functional, cell-based; conditions: PC-12
PC-12 [22] = assay: Increase in intracellular ROS production in rat PC12 cells assessed as induction of p38 phosphorylation at 10 uM after 1 hr by Western blot analysis; assay type: functional, cell-based
PC-12 [23] = assay: Increase in intracellular ROS production in rat PC12 cells at 10 uM up to 1 hr by CM-H2-DCFDA staining-based fluorescence assay; assay type: functional, cell-based
PC-12 [24] = assay: Increase in intracellular ROS production in rat PC12 cells at 10 uM after 0.5 hr by CM-H2-DCFDA staining-based fluorescence assay; assay type: functional, cell-based
PC-12 [25] = assay: Neuroprotective activity against H2O2-induced oxidative stress in rat PC12 cells assessed as cell viability pretreated with 2 uM for 6 hrs measured before inducer addition; assay type: functional; conditions: read-out: Activity
PC-12 [26] = assay: Increase in intracellular ROS production in rat PC12 cells assessed as NRF2-mediated HO-1 induction at 10 uM after 24 hrs by Western blot analysis; assay type: functional, cell-based
[27] = target: T1, Nuclear factor erythroid 2-related factor 2 (Rattus norvegicus); assay: Induction of nuclear translocation of Nrf2 in rat PC12 cells at 10 uM after 1 hr by Western blot analysis; assay type: functional, cell-based; conditions: PC-12

In the case of `Oc1ccc(C2OC[C@@H]3C(c4ccc5c(c4)OCO5)OC[C@H]23)cc1O` (some centres undefined), the fold change (FC) [1] is reported as 2.
`c1cc2c(cc1[C@H]1OC[C@H]3[C@@H]1CO[C@H]3c1ccc3c(c1)OCO3)OCO2` was tested, and the Activity [1] was “inactive”.
`c1cc2c(cc1[C@H]1OC[C@H]3[C@@H]1CO[C@@H]3c1ccc3c(c1)OCO3)OCO2` was tested, and the Activity [1] was “inactive”.
In the case of `Oc1ccc([C@H]2OC[C@H]3[C@@H]2CO[C@@H]3c2ccc3c(c2)OCO3)cc1O`, the Activity [2] is reported as “Active”, the viability at 10 µM (PC-12 [3]) is reported as 82% and the Activity (PC-12 [4]) is reported as “Active”. For the same molecule, the Activity [5] was “Active”, the Activity (PC-12 [6]) was “inactive” and the fold change (FC) [7] was 6. The Activity [8] was “Active”, the Activity (PC-12 [9]) was “inactive” and the Activity [10] was “Active”. For the same molecule, the Activity [11] was “inactive”, the Activity [12] was “inactive” and the Activity [13] was “inactive”. The Activity (PC-12 [14]) was “inactive”, the Activity [15] was “Active” and the Activity [16] was “Active”. The viability at 5 µM (PC-12 [17]) was 67%, the Activity [18] was “Active” and the Activity (PC-12 [19]) was “inactive”. For the same molecule, the Activity (PC-12 [20]) was “Active”, the Activity [21] was “Dose-dependent effect” and the Activity (PC-12 [22]) was “Active”. For the same molecule, the Activity (PC-12 [23]) was “Active”, the Activity (PC-12 [24]) was “Active” and the viability at 2 µM (PC-12 [25]) was 52%. For the same molecule, the Activity (PC-12 [26]) was “Active”, the fold change (FC) [1] was 2 and the Activity [27] was “Active”.
For `COc1cc(C2OC[C@@H]3C(c4ccc5c(c4)OCO5)OC[C@H]23)ccc1O` (mixture of isomers), the Activity [1] was “inactive”.
With `COc1cc([C@H]2OC[C@H]3[C@@H]2CO[C@@H]3c2ccc3c(c2)OCO3)ccc1O` the Activity [1] was “inactive”.
With `Oc1ccc([C@H]2OC[C@H]3[C@@H]2CO[C@@H]3c2ccc(O)c(O)c2)cc1O` the Activity [1] was “Active”.
In the case of `Oc1ccc([C@H]2OC[C@H]3[C@@H]2CO[C@H]3c2ccc(O)c(O)c2)cc1O`, the Activity [1] is reported as “inactive”.
